16 molecules from PubChem BioAssay (NCI) can be followed below.

Each structure is given as a SMILES string.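 Test compounds were applied to cells in 96-well plates for 48 hours at 5 doses. Definition used: TGI = concentration required for complete inhibition of growth.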

Test systems include CCRF-CEM leukemia; K-562 leukemia; MDA-MB-231 breast; NCI-H522 lung; PC-3 prostate; RPMI-8226 leukemia; SF-268 CNS; SK-MEL-2 melanoma; SNB-75 CNS; BT-549 breast.
Experiment in all cases: inhibition of tumour cell growth, NCI panel, 48 h

As for `Cn1cc(S(=O)(=O)NC(=O)Nc2ccc(Cl)cc2)c(=O)c2ccc(F)cc21`, the TGI with CCRF-CEM leukemia, in the assay on K-562 leukemia, in the assay with MDA-MB-231 breast, in the assay on NCI-H522 lung, in the assay on PC-3 prostate and in the assay with RPMI-8226 leukemia was more than 100 µM each time. In addition, the TGI in the assay on SF-268 CNS, in the assay with SK-MEL-2 melanoma and in the assay with SNB-75 CNS was more than 100 µM each time.
Consider `C[C@@H]1CC(=O)C[C@@H]2CC[C@H]3[C@@H]4CC[C@H](OC(=O)c5cccc6cc7ccccc7nc56)[C@H]4CC[C@@H]3[C@H]21`, for which the TGI was determined as 59.1 µM in the assay with BT-549 breast; 38 µM in the assay on K-562 leukemia; 37 µM in the assay with MDA-MB-231 breast; 20.1 µM in the assay with NCI-H522 lung; 27.1 µM with PC-3 prostate; 20.9 µM with SF-268 CNS. Besides, the TGI in the assay with SK-MEL-2 melanoma is 38 µM; with SNB-75 CNS, 36.5 µM.
With `C#CCN(Cc1ccc2nc(-c3ccccc3)c(N)nc2c1)c1cc(OC)c(OC)c(OC)c1`, the TGI is 44.8 µM in the assay on CCRF-CEM leukemia; more than 100 µM in the assay on K-562 leukemia; 64.3 µM in the assay on NCI-H522 lung; 32.3 µM in the assay with RPMI-8226 leukemia; more than 100 µM in the assay on SF-268 CNS; 64.8 µM in the assay with SK-MEL-2 melanoma. In the assay with SNB-75 CNS, this molecule gave a TGI of 83.5 µM.
Regarding `C(=Nc1ccc(-c2nc3ccccc3s2)cc1)c1ccc[nH]1`, the TGI amounted to 46.2 µM in the assay with BT-549 breast; 57.4 µM in the assay on CCRF-CEM leukemia; 66.6 µM with K-562 leukemia; 28 µM in the assay with NCI-H522 lung; 31.5 µM in the assay on PC-3 prostate; 55.9 µM in the assay with RPMI-8226 leukemia. Moreover, the TGI in the assay on SF-268 CNS was 52.5 µM; in the assay on SK-MEL-2 melanoma, 32 µM; in the assay with SNB-75 CNS it was 55.7 µM.
As for `O=c1[nH]c(=O)n(COCc2ccccc2)cc1Nc1ccc(Br)cc1`, the TGI with BT-549 breast, with CCRF-CEM leukemia, with K-562 leukemia, in the assay on PC-3 prostate, with RPMI-8226 leukemia and in the assay on SF-268 CNS was more than 100 µM in each case.
For `C[C@]12CC(c3ccccc3O1)C(C(=O)Nc1nc(C34CC5CC(CC(C5)C3)C4)cs1)C(=O)N2` (stereo not given in full), the TGI with BT-549 breast, with CCRF-CEM leukemia, in the assay with K-562 leukemia, in the assay on MDA-MB-231 breast, in the assay on PC-3 prostate and in the assay with RPMI-8226 leukemia was more than 100 µM in each case. Moreover, the TGI with SF-268 CNS, with SK-MEL-2 melanoma and in the assay with SNB-75 CNS was more than 100 µM in each case.
Consider `Cn1c(=O)c2c(nc3sc4ccccc4c(=O)n32)n(C)c1=O`, for which the TGI in the assay on BT-549 breast, with K-562 leukemia, in the assay on MDA-MB-231 breast, in the assay with PC-3 prostate, with RPMI-8226 leukemia and in the assay with SF-268 CNS was more than 100 µM in each case. For the same molecule, the TGI with SK-MEL-2 melanoma and in the assay on SNB-75 CNS was more than 100 µM each time.
For the molecule `O=C1CN(c2cccc(Cl)c2)C(=O)CN1NCNN1CC(=O)N(c2cccc(Cl)c2)CC1=O`, the TGI with BT-549 breast, in the assay on CCRF-CEM leukemia, with NCI-H522 lung, with PC-3 prostate, with RPMI-8226 leukemia and with SF-268 CNS was more than 100 µM in each case. In the assay on SNB-75 CNS, this molecule showed a TGI of more than 100 µM.
Regarding `O=C(/C=C(\C(=O)c1cccs1)c1cccs1)c1ccc(C(=O)/C=C(\C(=O)c2cccs2)c2cccs2)cc1`, the TGI with CCRF-CEM leukemia, in the assay with K-562 leukemia, with MDA-MB-231 breast, with PC-3 prostate, in the assay on RPMI-8226 leukemia and in the assay with SF-268 CNS was more than 100 µM each time. The TGI in the assay with SK-MEL-2 melanoma and in the assay with SNB-75 CNS was more than 100 µM in each case.
Turning to `COc1ccc(C2C(=O)c3c(OC)cc(OC)cc3OC2c2cccnc2)cc1` (stereo not given), the TGI in the assay on CCRF-CEM leukemia, in the assay with K-562 leukemia, with MDA-MB-231 breast, in the assay on NCI-H522 lung, in the assay on PC-3 prostate and in the assay with SF-268 CNS was more than 100 µM in each case. In addition, the results for the TGI with SK-MEL-2 melanoma and in the assay with SNB-75 CNS were more than 100 µM and 84.1 µM, respectively.
As to `C[C@H](CCC1SC1(C)C)C1CCC2(C)C3=C(CC[C@]12C)[C@@]1(C)CC[C@H](O)C(C)(C)C1CC3` (stereo not given in full), the TGI in the assay on CCRF-CEM leukemia, in the assay on K-562 leukemia, in the assay with NCI-H522 lung, with RPMI-8226 leukemia, with SF-268 CNS and in the assay on SK-MEL-2 melanoma was more than 100 µM each time. The molecule also came in with a TGI with SNB-75 CNS of more than 100 µM.
Consider `O=C(O)c1nc2ccc(C(F)(F)F)cc2nc1Nc1ccc(F)cc1`, for which the TGI with BT-549 breast was 44.2 µM; in the assay on K-562 leukemia, 43.4 µM; with MDA-MB-231 breast, 65.6 µM; in the assay with NCI-H522 lung, 24.7 µM; in the assay with PC-3 prostate it was 48 µM; with SF-268 CNS, 48.1 µM. The TGI amounted to 34.8 µM in the assay with SK-MEL-2 melanoma and 60 µM in the assay on SNB-75 CNS.
As to `CCn1c2ccccc2c2c(-c3ccccc3)cc3c(c21)C(=O)N(c1ccccc1)C3=O`, the TGI with CCRF-CEM leukemia, with K-562 leukemia, in the assay with NCI-H522 lung, in the assay with SF-268 CNS, with SK-MEL-2 melanoma and in the assay with SNB-75 CNS was more than 100 µM in each case.
As to `Cc1nc2cc(Nc3ccccc3C(=O)O)ccc2s1`, the TGI with CCRF-CEM leukemia, in the assay with K-562 leukemia, with NCI-H522 lung, in the assay with RPMI-8226 leukemia, in the assay on SF-268 CNS and in the assay on SK-MEL-2 melanoma was more than 100 µM throughout. In the assay on SNB-75 CNS, this molecule showed a TGI of more than 100 µM.
As for `C/C(N=NS(=O)(=O)c1ccc([N+](=O)[O-])cc1)=C1\C=CC=CN1O`, the TGI in the assay on CCRF-CEM leukemia, in the assay with K-562 leukemia, in the assay on NCI-H522 lung, in the assay with RPMI-8226 leukemia, in the assay on SF-268 CNS and in the assay with SNB-75 CNS was more than 100 µM each time.
Consider `NC(=O)CC(N=Cc1nc(-c2ccccc2)oc1O)C(=O)O` (stereo not given), for which the TGI in the assay with CCRF-CEM leukemia, in the assay on K-562 leukemia, with NCI-H522 lung, in the assay with RPMI-8226 leukemia, in the assay with SF-268 CNS and with SK-MEL-2 melanoma was more than 100 µM throughout. Also, in the assay on SNB-75 CNS, the TGI is more than 100 µM.
